What all share (assay type): functional, cell-based
In one assay the test system is Raji. In words: Antiproliferative activity against human Raji cells assessed as reduction in cell viability measured after 24 hrs by MTT assay.
Another assay deals with A2780S. Description: Antiproliferative activity against human A2780S cells assessed as reduction in cell viability measured after 24 hrs by MTT assay.
A further assay relates to HeLa. Description: Antiproliferative activity against human HeLa cells assessed as reduction in cell viability measured after 24 hrs by MTT assay.
In the next assay the test system is NCI-H460. In words: Antiproliferative activity against human NCI-H460 cells assessed as reduction in cell viability measured after 24 hrs by MTT assay. To be noted: NCI-H460, 24 h.
For the next assay, the system named is MCF7. Description: Antiproliferative activity against human MCF7 cells assessed as reduction in cell viability measured after 24 hrs by MTT assay. To be noted: MCF7, 24 h.

pIC50: −log10 of the molar value.

Turning to `CSc1ccc(Oc2cccc(CNc3cc4c(cn3)[nH]c3ccccc34)c2)cc1`, the pIC50 with Raji, with A2780S, with HeLa, in the assay with NCI-H460 and with MCF7 was below 6.30 each time.
Turning to `Clc1ccc(Oc2cccc(CNc3cc4c(cn3)[nH]c3ccccc34)c2)cc1`, the pIC50 in the assay on Raji was 7.13; with A2780S, 7.14; in the assay with HeLa, 7.35; in the assay with NCI-H460 it was 6.65; with MCF7, 7.32.
For `c1ccc(-c2cccc(CNc3cc4c(cn3)[nH]c3ccccc34)c2)cc1`, the pIC50 in the assay on Raji, with A2780S, with HeLa, with NCI-H460 and in the assay on MCF7 was below 6.30 throughout.
Turning to `Clc1ccccc1Oc1cccc(CNc2cc3c(cn2)[nH]c2ccccc23)c1`, the pIC50 in the assay with Raji was 7.23; in the assay on A2780S it was 7.37; in the assay on HeLa, 7.20; in the assay with NCI-H460, 7.13; with MCF7, 7.72.
The matching figures for `Cn1cccc1CNc1cc2c(cn1)[nH]c1ccccc12`: below 6.30, below 6.30, below 6.30, 6.30 and below 6.30.
With `c1cc(CNc2cc3c(cn2)[nH]c2ccccc23)cc(OC2CCC2)c1`, the pIC50 in the assay with Raji, in the assay on A2780S, in the assay on HeLa, in the assay on NCI-H460 and in the assay with MCF7 was below 6.30 each time.
In the case of `Clc1cccc(Oc2cccc(CNc3cc4c(cn3)[nH]c3ccccc34)c2)c1`, the pIC50 in the assay with Raji is 7.49; in the assay with A2780S it was 7.22; with HeLa, 7.37; in the assay on NCI-H460, 7.33; in the assay on MCF7 it was 7.41.
For `COc1ccccc1Oc1cccc(CNc2cc3c(cn2)[nH]c2ccccc23)c1`, the pIC50 was 6.30 in the assay with Raji; below 6.30 with A2780S; below 6.30 with HeLa; below 6.30 with NCI-H460; below 6.30 in the assay with MCF7.

These data come from ChEMBL document CHEMBL5042535, “Structure-Based Design and Synthesis of N-Substituted 3-Amino-β-Carboline Derivatives as Potent αβ-Tubulin Degradation Agents” (J Med Chem, 2022).
